Test results taken from article PMC3951999 (Cancer cell, 2011).

Columns and labels:
[1] = system: BV173R cells; experiment: Cell proliferation and apoptosis; details: 72 hr, absence of PD184352
[2] = system: BCR-ABL^T315I Ba/F3 cells; experiment: Western blots of CRAF immunoprecipitates and lysates, BCR-ABL^T315I Ba/F3 cells; details: BCR-ABL^T315I Ba/F3 cells
[3] = system: BCR-ABL Ba/F3 cells; experiment: Western blots of CRAF immunoprecipitates and lysates, BCR-ABL Ba/F3 cells; details: BCR-ABL Ba/F3 cells
[4] = molecular target: BRAF (Homo sapiens, UniProt P15056); experiment: RAF kinase assay, myc-tagged BRAF captured from COS cells; details: various GNF-2 concentrations, 30 min
[5] = system: SW620 (KRAS^G12V), Panc1 (KRAS^G12D) and H460 (KRAS^Q61H) cells; experiment: Western blot for MEK and ERK activation in KRAS mutant cells; assay type: cell-based, human; details: imatinib 10μM, nilotinib 1μM, dasatinib 5μM
[6] = system: BV173 cells; experiment: Western blots of CRAF immunoprecipitates and lysates, BV173 cells; assay type: cell-based, human
[7] = system: K562 cells; experiment: Western blots of CRAF immunoprecipitates and lysates, K562 cells; assay type: cell-based, human; details: imatinib 10μM, nilotinib 1μM, dasatinib 5μM
[8] = system: K562 cells expressing HRAS^G12V; assay type: cell-based, human
[9] = system: D04 cells (NRAS^Q61L); details: western blot
[10] = patient plasma; ref Weisberg et al., 2007; Demetri et al., 2002; cited from earlier work
[11] = molecular target: T1, CRAF (Homo sapiens, UniProt P04049); details: D04 cells; imatinib 10μM, nilotinib 1μM, dasatinib 5μM, 3 hr
[12] = molecular target: T1, CRAF; experiment: RAF kinase assay, myc-tagged CRAF captured from COS cells; details: imatinib 10μM, nilotinib 1μM, dasatinib 5μM
[13] = molecular target: CRAF^T421N (Homo sapiens, UniProt P04049, T421N); experiment: RAF kinase assay, myc-tagged CRAF^T421N captured from COS cells; details: gatekeeper mutant; imatinib 10μM, nilotinib 1μM, dasatinib 5μM

Chain of BRAF (P15056 whole entry): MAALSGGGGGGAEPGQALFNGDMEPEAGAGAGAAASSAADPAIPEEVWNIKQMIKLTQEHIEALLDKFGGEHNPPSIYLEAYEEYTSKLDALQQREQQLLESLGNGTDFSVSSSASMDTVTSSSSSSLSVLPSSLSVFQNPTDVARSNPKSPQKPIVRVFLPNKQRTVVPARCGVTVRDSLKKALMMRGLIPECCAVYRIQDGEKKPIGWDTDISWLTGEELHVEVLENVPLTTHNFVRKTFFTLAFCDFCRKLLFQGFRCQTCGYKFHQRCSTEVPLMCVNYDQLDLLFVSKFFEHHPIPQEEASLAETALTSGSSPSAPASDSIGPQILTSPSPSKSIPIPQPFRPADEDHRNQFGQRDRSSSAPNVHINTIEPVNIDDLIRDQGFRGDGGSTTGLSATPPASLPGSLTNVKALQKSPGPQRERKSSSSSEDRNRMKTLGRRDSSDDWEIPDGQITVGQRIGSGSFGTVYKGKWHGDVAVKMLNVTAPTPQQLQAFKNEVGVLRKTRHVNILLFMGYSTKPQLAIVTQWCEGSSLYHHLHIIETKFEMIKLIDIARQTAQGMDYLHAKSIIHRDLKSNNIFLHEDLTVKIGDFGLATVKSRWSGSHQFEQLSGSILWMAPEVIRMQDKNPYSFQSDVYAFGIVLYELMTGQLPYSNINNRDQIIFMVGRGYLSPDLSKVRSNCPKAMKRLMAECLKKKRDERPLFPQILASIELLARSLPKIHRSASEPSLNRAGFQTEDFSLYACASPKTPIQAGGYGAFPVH

SMILES	cell death (apoptotic sub-G1 cells) [1]	BCR-ABL and CRKL phosphorylation [2]	BRAF binding to CRAF [2]	BCR-ABL (Y245) and CRKL (Y207) phosphorylation [3]	BRAF binding to CRAF [3]	CRAF (S338) phosphorylation, MEK and ERK activity/phosphorylation [3]	further results
Cn1c(Nc2ccc(C(F)(F)F)cc2)nc2cc(Oc3ccnc(-c4ncc(C(F)(F)F)[nH]4)c3)ccc21 [RAF265]	induced cell death	did not inhibit BCR-ABL or CRKL phosphorylation	induced BRAF binding to CRAF				
Oc1cc(-c2nc(-c3ccccc3)[nH]c2-c2ccncc2)ccc1Cl [L779450]				Neither agent inhibited BCR-ABL or CRKL phosphorylation	stimulated BRAF binding to CRAF	stimulated	
NC(=O)c1cccc(-c2cc(Nc3ccc(OC(F)(F)F)cc3)ncn2)c1 [GNF-2]		did not block BCR-ABL or CRKL phosphorylation	did not induce BRAF binding to CRAF	blocked		blocked	BRAF activity in vitro [4]: did not inhibit BRAF activity in vitro; CRAF (S338) phosphorylation, MEK and ERK activity/phosphorylation [2]: did not increase CRAF, MEK or ERK phosphorylation
Cc1nc(Nc2ncc(C(=O)Nc3c(C)cccc3Cl)s2)cc(N2CCN(CCO)CC2)n1 [dasatinib]							MEK and ERK activation [5]: activated MEK and ERK; BCR-ABL and CRKL phosphorylation [6]: inhibited BCR-ABL and CRKL phosphorylation; BRAF binding to CRAF [6]: did not induce BRAF binding to CRAF; MEK and ERK activity [6]: inhibited MEK and ERK; BRAF binding to CRAF [7]: did not induce BRAF binding to CRAF; BRAF binding to CRAF ([8]; imatinib 10μM, nilotinib 1μM, dasatinib 5μM): induced BRAF binding to CRAF; MEK and ERK phosphorylation ([8]; pathway already saturated): did not increase MEK and ERK phosphorylation; lowest concentration stimulating robust MEK and ERK phosphorylation [9]: 100 nM; peak plasma/serum concentration [10]: ~90 nM; endogenous CRAF kinase activity [11]: activated; CRAF kinase activity in vitro [12]: inhibited; CRAF^T421N kinase activity in vitro [13]: resistant
CNC(=O)c1cc(Oc2ccc(NC(=O)Nc3ccc(Cl)c(C(F)(F)F)c3)cc2)ccn1 [sorafenib]	induced cell death						
CN(C)CCOc1ccc(-c2nc(-c3ccncc3)c(-c3ccc4c(c3)CC/C4=N\O)[nH]2)cc1 [SB590885]				Neither agent inhibited BCR-ABL or CRKL phosphorylation	stimulated BRAF binding to CRAF	stimulated	
